Test results as given in the supplement of paper PMC6045584.
± gives the standard deviation of the averaged measurements.

What was measured:
[1] = compound: Cc1cn(-c2cc(NC(=O)c3ccc(C)c(Nc4nccc(-c5cccnc5)n4)c3)cc(C(F)(F)F)c2)cn1 [NILOTINIB]; test: surviving fraction relative to DMSO-only wells; higher = less growth inhibition; conditions: exposure time: 5 days
Outline: (§1)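 Tumour cell lines were seeded in log phase at 250–500 cells per well into 384-well plates. Starting 24 hours later, inhibitors were present continuously for five days at 0.5, 1, 5, 10, 50, 100, 500 and 1000 nM. Surviving fraction, from CellTiter-Glo luminescence, is normalised to the median of DMSO-only wells. Three screens per line were required, with replicate Pearson r >0.7 and median Z' >0.3 for a line to be kept.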

[2] = compound: O=C(CCCCCCC(=O)Nc1ccccc1)NO [VORINOSTAT]; test: as above; conditions: exposure time: 5 days
Outline: as §1

Test System	surviving fraction ([1]; 0.5 nM)	surviving fraction ([1]; 1 nM)	surviving fraction ([1]; 5 nM)	surviving fraction ([1]; 10 nM)	surviving fraction ([1]; 50 nM)	surviving fraction ([1]; 100 nM)	surviving fraction ([1]; 500 nM)	surviving fraction ([1]; 1000 nM)	surviving fraction ([2]; 0.5 nM)	surviving fraction ([2]; 1 nM)	surviving fraction ([2]; 5 nM)	surviving fraction ([2]; 10 nM)	surviving fraction ([2]; 50 nM)	surviving fraction ([2]; 100 nM)	surviving fraction ([2]; 500 nM)	surviving fraction ([2]; 1000 nM)
SG27 HEADNECK	1.13 ± 0.03	1.09 ± 0.087	1.02 ± 0.066	1.06 ± 0.063	1.11 ± 0.21	1.04 ± 0.056	1.17 ± 0.091	1.23 ± 0.051	1.22 ± 0.15	1.05 ± 0.089	1.01 ± 0.13	1.08 ± 0.048	0.989 ± 0.1	0.955 ± 0.088	0.824 ± 0.097	0.755 ± 0.048
SG28 HEADNECK	1.07 ± 0.044	1.05 ± 0.025	1.07 ± 0.062	1.07 ± 0.042	0.782 ± 0.042	0.907 ± 0.068	0.84 ± 0.013	0.903 ± 0.067	1.11 ± 0.14	1.16 ± 0.17	1.066 ± 0.0025	1.09 ± 0.018	1.03 ± 0.073	1.09 ± 0.032	0.998 ± 0.081	0.809 ± 0.11
SG31 HEADNECK	1.24 ± 0.13	1.2 ± 0.13	1.08 ± 0.11	1.24 ± 0.21	1.14 ± 0.081	1.26 ± 0.17	1.02 ± 0.15	1.16 ± 0.13	1.07 ± 0.21	1.05 ± 0.27	1.02 ± 0.078	1.01 ± 0.18	1.08 ± 0.12	1.04 ± 0.042	0.948 ± 0.14	0.63 ± 0.027
SG32 HEADNECK	0.984 ± 0.025	0.986 ± 0.062	1.16 ± 0.12	1.24 ± 0.26	0.823 ± 0.21	0.864 ± 0.16	0.866 ± 0.039	0.834 ± 0.12	0.938 ± 0.1	1.18 ± 0.35	1.18 ± 0.2	0.933 ± 0.053	1.03 ± 0.25	0.995 ± 0.21	0.697 ± 0.16	0.344 ± 0.068
SG43 HEADNECK	1.19 ± 0.17	1.12 ± 0.25	1.05 ± 0.13	1.05 ± 0.055	1.66 ± 0.17	1.76 ± 0.32	1.93 ± 0.23	1.98 ± 0.2	1.08 ± 0.16	1.13 ± 0.12	0.836 ± 0.23	1.03 ± 0.21	0.949 ± 0.15	1.1 ± 0.033	1.04 ± 0.28	0.729 ± 0.21
SIHA CERVIX	1.03 ± 0.029	1.02 ± 0.029	1 ± 0.024	1.11 ± 0.04	1.09 ± 0.036	1.061 ± 0.0087	1.05 ± 0.055	1.03 ± 0.037	0.978 ± 0.05	0.965 ± 0.018	1.07 ± 0.025	1.06 ± 0.13	1.2 ± 0.032	1.17 ± 0.13	1.15 ± 0.035	1 ± 0.14
SJSA1 BONE	1.73 ± 0.13	1.67 ± 0.1	1.65 ± 0.08	1.802 ± 0.014	1.56 ± 0.1	1.69 ± 0.04	1.63 ± 0.074	1.77 ± 0.044	0.793 ± 0.037	0.946 ± 0.057	0.844 ± 0.049	0.953 ± 0.067	0.844 ± 0.021	0.973 ± 0.059	0.544 ± 0.035	0.672 ± 0.03
SKBR3 BREAST	1.01 ± 0.13	1.02 ± 0.074	1 ± 0.037	0.994 ± 0.13	0.731 ± 0.097	0.826 ± 0.18	0.744 ± 0.061	0.775 ± 0.076	1 ± 0.11	0.996 ± 0.15	0.85 ± 0.03	0.915 ± 0.17	0.98 ± 0.13	1.02 ± 0.15	0.433 ± 0.046	0.179 ± 0.046
SNU475 LIVER	1.05 ± 0.028	1 ± 0.036	1.01 ± 0.031	1.04 ± 0.017	0.941 ± 0.026	0.939 ± 0.03	0.953 ± 0.024	0.858 ± 0.076	0.9603 ± 0.0081	0.944 ± 0.021	0.966 ± 0.028	0.831 ± 0.037	0.968 ± 0.027	0.941 ± 0.026	0.817 ± 0.018	0.556 ± 0.024
SUM44 BREAST	1.03 ± 0.19	1.04 ± 0.21	1.08 ± 0.23	1.07 ± 0.15	0.958 ± 0.012	0.934 ± 0.059	0.943 ± 0.064	0.932 ± 0.083	0.934 ± 0.025	0.954 ± 0.037	0.951 ± 0.0099	1.01 ± 0.086	1.07 ± 0.016	0.917 ± 0.038	0.418 ± 0.031	0.294 ± 0.013
